Assay: solubility of histidine added to acidic aqueous solution, left standing at room temperature for 24 hr
Type: physicochemical
Procedure: (§1) Acidic substances (acetic acid, phosphoric acid, citric acid, malic acid, or tartaric acid) in the amounts indicated in Table 1 were added to and dissolved in water at 80 to 100° C. to prepare acidic aqueous solutions. Then, to the prepared acidic aqueous solutions was added histidine (HIS) in the amounts indicated in Table 1, and the mixtures were thoroughly stirred. The mixtures were left standing at room temperature for 24 hr, and the solubility of histidine was examined.
Acidic substances (citric acid, malic acid or tartaric acid) in the amounts indicated in Table 2 were added to and dissolved in water at 80 to 100° C. to prepare acidic aqueous solutions. Then, to the prepared acidic aqueous solutions was added histidine (HIS) in the amounts indicated in Table 2 to a concentration of not less than 45 wt %, and the mixtures were thoroughly stirred. The mixtures were left standing at room temperature for 24 hr, and the solubility of histidine was examined. In Table 2, “-” in the pH column means unmeasurable. In Table 2, the composition with *2 was prepared after preparation of the composition with *1, by reducing the amount of water by evaporation under reduced pressure.
Citric acid in the amount indicated in Tables 3 to 5 were added to and dissolved in water at 80 to 100° C. to prepare acidic aqueous solutions. Then, to the prepared acidic aqueous solutions was added histidine (HIS) in the amounts indicated in Tables 3 to 5, and the mixtures were thoroughly stirred. The mixtures were left standing at room temperature for 24 hr, and the solubility of histidine was examined. In Table 5, the composition with *2 was prepared after preparation of the composition with *1, by reducing the amount of water by evaporation under reduced pressure.
as §1, with “substances (citric acid or” for “substances (acetic acid, phosphoric acid, citric acid,”, “malic” for “malic acid, or tartaric”, “Table 6 and 7” for “Table 1”, “histidine” for “histidine (HIS)”, “Table 6 and 7 to a concentration of 20 wt % or 30 wt %,” for “Table 1,”

preparation of liquid composition having a histidine concentration of not less than 47.4 wt % (0.56 part by weight of citric acid or malic acid per 1 part by weight of histidine): could not be prepared
solubility (Table 1: citric acid 60 g, water 50 g, His 90 g, acidic substance/HIS 0.67 W/W, pH before His addition 0.40, HIS concentration 45.0 % (W/W) in liquid, room temperature 24 hr): ∘
solubility (Table 1: citric acid 65 g, water 50 g, His 100 g, acidic substance/HIS 0.65 W/W, pH before His addition 0.30, HIS concentration 46.5 % (W/W) in liquid, room temperature 24 hr): ∘
solubility (Table 1: citric acid 80 g, water 50 g, His 120 g, acidic substance/HIS 0.67 W/W, pH before His addition 0.10, HIS concentration 48.0 % (W/W) in liquid, room temperature 24 hr): ∘
solubility (Table 1: malic acid 60 g, water 50 g, His 90 g, acidic substance/HIS 0.67 W/W, pH before His addition 0.40, HIS concentration 45.0 % (W/W) in liquid, room temperature 24 hr): ∘
solubility (Table 1: tartaric acid 60 g, water 50 g, His 90 g, acidic substance/HIS 0.67 W/W, pH before His addition 0.20, HIS concentration 45.0 % (W/W) in liquid, room temperature 24 hr): ∘
solubility (Table 2 (*1): citric acid 60 g, water 50 g, His 90 g, acidic substance/HIS 0.67 W/W, pH before His addition 0.40, HIS concentration 45.0 % (W/W) in liquid, room temperature 24 hr): ∘
solubility (Table 2 (*2, water reduced by evaporation under reduced pressure from *1): citric acid 60 g, water 10 g, His 90 g, acidic substance/HIS 0.67 W/W, HIS concentration 56.3 % (W/W) in liquid): ∘
solubility (Table 2 (*2, water reduced by evaporation under reduced pressure from *1): citric acid 60 g, water 20 g, His 90 g, acidic substance/HIS 0.67 W/W, HIS concentration 52.9 % (W/W) in liquid): ∘
solubility (Table 2: citric acid 65 g, water 50 g, His 100 g, acidic substance/HIS 0.65 W/W, pH before His addition 0.30, HIS concentration 46.5 % (W/W) in liquid, room temperature 24 hr): ∘
solubility (Table 2: citric acid 80 g, water 50 g, His 120 g, acidic substance/HIS 0.67 W/W, pH before His addition 0.10, HIS concentration 48.0 % (W/W) in liquid, room temperature 24 hr): ∘
solubility (Table 2: citric acid 120 g, water 50 g, His 180 g, acidic substance/HIS 0.67 W/W, HIS concentration 51.4 % (W/W) in liquid, room temperature 24 hr): ∘
solubility (Table 2: malic acid 60 g, water 50 g, His 90 g, acidic substance/HIS 0.67 W/W, pH before His addition 0.40, HIS concentration 45.0 % (W/W) in liquid, room temperature 24 hr): ∘
solubility (Table 2: malic acid 70 g, water 50 g, His 100 g, acidic substance/HIS 0.70 W/W, HIS concentration 45.5 % (W/W) in liquid, room temperature 24 hr): ∘
solubility (Table 2: tartaric acid 60 g, water 50 g, His 90 g, acidic substance/HIS 0.67 W/W, pH before His addition 0.20, HIS concentration 45.0 % (W/W) in liquid, room temperature 24 hr): ∘
solubility (Table 2: tartaric acid 60 g, water 50 g, His 100 g, acidic substance/HIS 0.60 W/W, pH before His addition 0.20, HIS concentration 47.6 % (W/W) in liquid, room temperature 24 hr): ∘
solubility of histidine (Table 3: amount of histidine added to acidic aqueous solution (water 50 g, citric acid 60 g) reduced): fine
solubility (Table 3: citric acid 60 g, water 50 g, His 30 g, acidic substance/HIS 2.00 W/W, HIS concentration 21.4 % (W/W) in liquid, room temperature 24 hr): ◯
solubility (Table 3: citric acid 60 g, water 50 g, His 50 g, acidic substance/HIS 1.20 W/W, HIS concentration 31.3 % (W/W) in liquid, room temperature 24 hr): ◯
solubility (Table 3: citric acid 60 g, water 50 g, His 70 g, acidic substance/HIS 0.86 W/W, HIS concentration 38.9 % (W/W) in liquid, room temperature 24 hr): ◯
solubility (Table 3: citric acid 60 g, water 50 g, His 90 g, acidic substance/HIS 0.67 W/W, HIS concentration 45.0 % (W/W) in liquid, room temperature 24 hr): ◯
solubility (Table 4: citric acid 20.0 g, water 50 g, His 30 g, acidic substance/HIS 0.67 W/W, HIS concentration 30.0 % (W/W) in liquid, room temperature 24 hr): ◯
solubility (Table 4: citric acid 33.3 g, water 50 g, His 50 g, acidic substance/HIS 0.67 W/W, HIS concentration 37.5 % (W/W) in liquid, room temperature 24 hr): ◯
solubility (Table 4: citric acid 46.7 g, water 50 g, His 70 g, acidic substance/HIS 0.67 W/W, HIS concentration 42.0 % (W/W) in liquid, room temperature 24 hr): ◯
solubility (Table 4: citric acid 60 g, water 50 g, His 90 g, acidic substance/HIS 0.67 W/W, HIS concentration 45.0 % (W/W) in liquid, room temperature 24 hr): ◯
solubility of histidine (Table 4: histidine and acidic substance reduced at constant ratio, acidic substance/HIS=0.67 (w/w)): fine
solubility (Table 5 (*1): citric acid 60 g, water 27.8 g, His 50 g, acidic substance/HIS 1.20 W/W, HIS concentration 36.3 % (W/W) in liquid, HIS content 180 % (W/W) to water, room temperature 24 hr): ◯
solubility (Table 5 (*2): citric acid 60 g, water 16.7 g, His 30 g, acidic substance/HIS 2.00 W/W, HIS concentration 28.1 % (W/W) in liquid, HIS content 180 % (W/W) to water): ◯
solubility (Table 5: citric acid 60 g, water 38.9 g, His 70 g, acidic substance/HIS 0.86 W/W, HIS concentration 41.4 % (W/W) in liquid, HIS content 180 % (W/W) to water, room temperature 24 hr): ◯
solubility (Table 5: citric acid 60 g, water 50 g, His 90 g, acidic substance/HIS 0.67 W/W, HIS concentration 45.0 % (W/W) in liquid, HIS content 180 % (W/W) to water, room temperature 24 hr): ◯
solubility of histidine (Table 5: histidine and water reduced at constant ratio, histidine content to water=180% (w/w)): fine
solubility (Table 6: citric acid 2.7 g, water 37.3 g, His 10 g, acidic substance/HIS 0.27 W/W, HIS concentration 20.0 % (W/W) in liquid, room temperature 24 hr): ∘
solubility (Table 6: citric acid 3.7 g, water 36.3 g, His 10 g, acidic substance/HIS 0.37 W/W, HIS concentration 20.0 % (W/W) in liquid, room temperature 24 hr): ∘
solubility (Table 6: citric acid 4.7 g, water 35.3 g, His 10 g, acidic substance/HIS 0.47 W/W, HIS concentration 20.0 % (W/W) in liquid, room temperature 24 hr): ∘
solubility (Table 6: citric acid 5.7 g, water 34.3 g, His 10 g, acidic substance/HIS 0.57 W/W, HIS concentration 20.0 % (W/W) in liquid, room temperature 24 hr): ∘
solubility (Table 6: citric acid 6.7 g, water 33.3 g, His 10 g, acidic substance/HIS 0.67 W/W, HIS concentration 20.0 % (W/W) in liquid, room temperature 24 hr): ∘
solubility (Table 6: malic acid 2.7 g, water 37.3 g, His 10 g, acidic substance/HIS 0.27 W/W, HIS concentration 20.0 % (W/W) in liquid, room temperature 24 hr): ∘
solubility (Table 7: citric acid 6.0 g, water 29.0 g, His 15 g, acidic substance/HIS 0.40 W/W, HIS concentration 30.0 % (W/W) in liquid, room temperature 24 hr): ∘
solubility (Table 7: citric acid 7.0 g, water 28.0 g, His 15 g, acidic substance/HIS 0.47 W/W, HIS concentration 30.0 % (W/W) in liquid, room temperature 24 hr): ∘
solubility (Table 7: citric acid 8.0 g, water 27.0 g, His 15 g, acidic substance/HIS 0.53 W/W, HIS concentration 30.0 % (W/W) in liquid, room temperature 24 hr): ∘
solubility (Table 7: citric acid 9.0 g, water 26.0 g, His 15 g, acidic substance/HIS 0.60 W/W, HIS concentration 30.0 % (W/W) in liquid, room temperature 24 hr): ∘
solubility (Table 7: citric acid 10.0 g, water 25.0 g, His 15 g, acidic substance/HIS 0.67 W/W, HIS concentration 30.0 % (W/W) in liquid, room temperature 24 hr): ∘
solubility (Table 7: malic acid 6.0 g, water 29.0 g, His 15 g, acidic substance/HIS 0.40 W/W, HIS concentration 30.0 % (W/W) in liquid, room temperature 24 hr): ∘
solubility of histidine (citric acid, malic acid or tartaric acid as acidic substance, pH of not more than 1.0, amount corresponding to concentration of not less than 45 wt %): finely dissolved
solubility of histidine (histidine 20 wt %, 0.17 part by weight of acidic substance per 1 part by weight of histidine): not dissolved
solubility of histidine (histidine 20 wt %, not less than 0.27 part by weight of acidic substance per 1 part by weight of histidine): fine
solubility of histidine (histidine 30 wt %, 0.33 part by weight of acidic substance per 1 part by weight of histidine): not dissolved
solubility of histidine (histidine 30 wt %, not less than 0.40 part by weight of acidic substance per 1 part by weight of histidine): fine
histidine concentration of liquid composition that could be prepared (not less than 0.65 part by weight of citric acid, not less than 0.67 of malic acid, or not less than 0.60 of tartaric acid per 1 part by weight of histidine): not less than 45 wt %
SMILES: N[C@@H](Cc1c[nH]cn1)C(=O)O [HIS, histidine]
solubility of histidine (acetic acid or phosphoric acid as acidic substance, acidic aqueous solution pH of not more than 1.0, room temperature 24 hr): not dissolved or, even when dissolved, precipitated
